Experiments:
Conditions in all cases: human; call rule not given here
[1] = test system: Hepatotoxicity; experiment: FDA HLAED, liver enzyme composite activity
[2] = test system: Hepatotoxicity; experiment: FDA HLAED, lactate dehydrogenase (LDH) increase
[3] = test system: Hepatotoxicity; experiment: FDA HLAED, serum glutamic oxaloacetic transaminase (SGOT) increase
[4] = test system: Hepatotoxicity; experiment: FDA HLAED, gamma-glutamyl transferase (GGT) increase
[5] = test system: Hepatotoxicity; experiment: FDA HLAED, serum glutamic pyruvic transaminase (SGPT) increase
[6] = test system: Hepatotoxicity; experiment: FDA HLAED, alkaline phosphatase increase
Wherever GGT Increase - Index Value is given: reference of the scale not given here.
Wherever LDH Increase - Index Value is given: reference of the scale not given here.

SMILES | Composite Activity - Active [1] | Composite Activity - Marginal [1] | Composite Activity - Score [1] | LDH Increase - Activity Score [2] | LDH Increase - Index Value [2] | LDH Increase - Number of Reports [2] | SGOT Increase - Activity Score [3] | SGOT Increase - Index Value [3] | SGOT Increase - Number of Reports [3] | GGT Increase - Activity Score [4] | GGT Increase - Index Value [4] | GGT Increase - Number of Reports [4] | SGPT Increase - Activity Score [5] | SGPT Increase - Index Value [5] | SGPT Increase - Number of Reports [5] | Alkaline Phosphatase Increase - Activity Score [6] | Alkaline Phosphatase Increase - Index Value [6] | Alkaline Phosphatase Increase - Number of Reports [6] | other results
Cn1cc([S+](C)[O-])c(=O)c2ccc(F)cc21 (configuration not stated) [FLOSEQUINAN] | 1 | 0 | Inactive | Active | 56.6 | >= 4 | Inactive | 28.3 | < 4 | Inactive | 0 | < 4 | Inactive | 28.3 | < 4 | Inactive | 14.1 | < 4 | 
OC(Cn1cncn1)(Cn1cncn1)c1ccc(F)cc1F [FLUCONAZOLE] |  |  |  | Marginally Active | 3 | >= 4 | Active | 9.8 | >= 4 | Active | 4.2 | >= 4 | Active | 9.1 | >= 4 | Active | 8.4 | >= 4 | Composite Activity - Active ([1]; Liver): 4; Composite Activity - Marginal ([1]; Liver): 1; Composite Activity - Score ([1]; Liver): Active
Nc1nc(F)nc2c1ncn2[C@@H]1O[C@H](CO)[C@@H](O)[C@@H]1O [FLUDARABINE] | 4 | 0 | Active | Active | 18.3 | >= 4 | Active | 9.2 | >= 4 | Inactive | 0 | < 4 | Active | 10.7 | >= 4 | Active | 9.2 | >= 4 | 
CCOC(=O)c1ncn2c1CN(C)C(=O)c1cc(F)ccc1-2 [FLUMAZENIL] | 0 | 0 | Inactive | Inactive | 0 | < 4 | Inactive | 2.5 | < 4 | Inactive | 0 | < 4 | Inactive | 2.5 | < 4 | Inactive | 0 | < 4 | 
CC1(C)O[C@@H]2C[C@H]3[C@@H]4C[C@H](F)C5=CC(=O)C=C[C@]5(C)[C@H]4[C@@H](O)C[C@]3(C)[C@]2(C(=O)CO)O1 [FLUNISOLIDE] | 0 | 0 | Inactive | Inactive | 0 | < 4 | Inactive | 0 | < 4 | Inactive | 0 | < 4 | Inactive | 0 | < 4 | Inactive | 0 | < 4 | 
CNCCC(Oc1ccc(C(F)(F)F)cc1)c1ccccc1 (configuration not stated) [FLUOXETINE] | 3 | 2 | Active | Marginally Active | 3.2 | >= 4 | Active | 9.6 | >= 4 | Marginally Active | 3.3 | >= 4 | Active | 8.7 | >= 4 | Active | 4.7 | >= 4 | 
CC(C(=O)O)c1ccc(-c2ccccc2)c(F)c1 (configuration not stated) [FLURBIPROFEN] | 0 | 0 | Inactive | Inactive | 0.2 | < 4 | Inactive | 0.9 | >= 4 | Inactive | 0.9 | >= 4 | Inactive | 0.9 | >= 4 | Inactive | 0.9 | >= 4 | 
CC(C)C(=O)Nc1ccc([N+](=O)[O-])c(C(F)(F)F)c1 [FLUTAMIDE] | 5 | 0 | Active | Active | 8.4 | >= 4 | Active | 22.4 | >= 4 | Active | 6.7 | >= 4 | Active | 20.2 | >= 4 | Active | 16.8 | >= 4 | 
C[C@@H]1C[C@H]2[C@@H]3C[C@H](F)C4=CC(=O)C=C[C@]4(C)[C@@]3(F)[C@@H](O)C[C@]2(C)[C@@]1(O)C(=O)SCF [FLUTICASONE] | 0 | 0 | Inactive | Inactive | 0 | < 4 | Inactive | 0.8 | < 4 | Inactive | 0 | < 4 | Inactive | 0.8 | < 4 | Inactive | 0 | < 4 | 
